US20250066341A1 (CHIESI FARMACEUTICI S.P.A., priority 2021, published 2025)

Molecular target: T1, human recombinant LPA1 expressed in CHO cells (Homo sapiens, UniProt Q92633)
T1 construct: expressed in transfected cells; host or cells: CHO cells (CHO-hLPA1 cell line)
Experiment: FLIPR calcium mobilization assay, LPA1 antagonism in CHO-hLPA1 cells
Type: cell-based
Conditions: inhibition of LPA EC80 Ca2+ response, 30 min pre-incubation, expressed as range of activity
Procedure, shortened: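 CHO-hLPA1 cells loaded with 5 μM Cal-520 AM plus 2.5 mM probenecid, 30 min at 37 °C, then pre-incubated 30 min at 37 °C with antagonist (11-point CRC, 0.5% DMSO final) before LPA at EC80. Baseline-subtracted peak fluorescence normalised to % inhibition; pIC50 from four-parameter logistic fit.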

T1 sequence (Q92633 whole entry): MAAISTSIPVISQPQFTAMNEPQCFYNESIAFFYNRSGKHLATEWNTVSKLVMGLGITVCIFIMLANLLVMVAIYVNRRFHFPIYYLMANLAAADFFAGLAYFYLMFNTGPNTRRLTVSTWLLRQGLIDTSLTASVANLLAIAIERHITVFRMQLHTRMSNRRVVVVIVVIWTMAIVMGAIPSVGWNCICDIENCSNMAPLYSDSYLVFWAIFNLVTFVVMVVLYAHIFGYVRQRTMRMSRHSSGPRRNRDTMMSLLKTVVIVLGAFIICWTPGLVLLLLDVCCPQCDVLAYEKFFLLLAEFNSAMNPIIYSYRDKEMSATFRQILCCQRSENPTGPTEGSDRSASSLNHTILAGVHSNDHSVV

| IC50 [nM] | Compound |
| --- | --- |
| < 50 | Cc1noc(-c2ccc(OC[C@H]3CCCC[C@@H]3C(=O)O)cn2)c1NC(=O)O[C@H](C)c1ccccc1Cl [Compound 78, (1S,2S)-2-(((6-(4-((((R)-1-(2-chlorophenyl)ethoxy)carbonyl)amino)-3-methylisoxazol-5-yl)pyridin-3-yl)oxy)methyl)cyclohexane-1-carboxylic acid] |
| < 50 | Cc1noc(-c2ccc(OCC3CCCCC3C(=O)O)cn2)c1NC(=O)O[C@H](C)c1ccccc1Cl (stereo partly drawn) [Compound 79, 2-(((6-(4-((((R)-1-(2-chlorophenyl)ethoxy)carbonyl)amino)-3-methylisoxazol-5-yl)pyridin-3-yl)oxy)methyl)cyclohexane-1-carboxylic acid] |
| < 50 | Cc1nc(-c2onc(C)c2NC(=O)O[C@H](C)c2ccccc2Cl)ccc1OC[C@H]1CCCC[C@@H]1C(=O)O [Compound 80, (1S,2S)-2-(((6-(4-((((R)-1-(2-chlorophenyl)ethoxy)carbonyl)amino)-3-methylisoxazol-5-yl)-2-methylpyridin-3-yl)oxy)methyl)cyclohexane-1-carboxylic acid] |
